# Laboratory results: PubChem BioAssay (NCI)
#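 Where inhibition never reached the appropriate level, the endpoint shown equals the highest concentration tested. Otherwise, values were interpolated linearly from a five-concentration, 48-hour dose response in 96-well plates. At the GI50, growth is halved. TGI: concentration producing complete growth inhibition.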
# Legend:
# Test in all cases: inhibition of tumour cell growth, NCI panel, 48 h
# [1] = tested on: IGROV1 ovarian
# [2] = tested on: NCI-H23 lung
# [3] = tested on: ACHN renal
# [4] = tested on: T-47D breast
# [5] = tested on: CAKI-1 renal
# [6] = tested on: NCI-H522 lung
# [7] = tested on: COLO 205 colon
# [8] = tested on: HT29 colon
# [9] = tested on: BT-549 breast
# [10] = tested on: SNB-75 CNS
SMILES,GI50 [1],TGI [1],GI50 [2],TGI [2],GI50 [3],TGI [3],GI50 [4],TGI [4],GI50 [5],TGI [5],GI50 [6],TGI [6],GI50 [7],TGI [7],GI50 [8],TGI [8],GI50 [9],TGI [9],GI50 [10],TGI [10]
NC(=O)c1cc(-c2ccc(F)cc2)cc(-c2ccncc2)c1N,> 25 µM,> 25 µM,> 25 µM,> 25 µM,> 25 µM,> 25 µM,> 25 µM,> 25 µM,13.7 µM,> 25 µM,> 25 µM,> 25 µM,> 25 µM,> 25 µM,> 25000 nM,> 25 µM,> 25 µM,> 25 µM,4.99 µM,> 25 µM
CC1OC(OC2C(O[C@H]3CC[C@@]4(C)C(=CC[C@H]5[C@@H]6C[C@@H]7O[C@]8(CC[C@H](C)CN8)[C@@H](C)[C@@H]7[C@@]6(C)CC[C@@H]54)C3)OC(CO)C(O)C2OC2OC(CO)C(O)C(O)C2O)C(O)C(O)C1O (stereo not given in full),,39.5 µM,,32.5 µM,,31.4 µM,,39 µM,,34 µM,,30.3 µM,,31.8 µM,,31.6 µM,,30.9 µM,,29.2 µM
CN1CCN(c2ccc3nc(-c4ccc5nc(-c6ccc(OCCC(C)(C)C)cc6)[nH]c5c4)[nH]c3c2)CC1,7.69 µM,31.6 µM,15.1 µM,33 µM,9.2 µM,22.8 µM,14.2 µM,41.1 µM,4.15 µM,15.7 µM,13.6 µM,38.1 µM,12.9 µM,30 µM,1780 nM,4.07 µM,17.5 µM,40.1 µM,3.46 µM,18 µM
CN(CC(=O)N(Cc1ccc(C2CCCCC2)cc1)c1ccc(C(=O)O)c(O)c1)S(=O)(=O)c1c(F)c(F)c(F)c(F)c1F,1.85 µM,4.08 µM,10.6 µM,26.9 µM,15.3 µM,28.8 µM,8.14 µM,27 µM,5.09 µM,10.4 µM,2.74 µM,8.51 µM,12.7 µM,26.5 µM,2050 nM,4.2 µM,10.9 µM,23.6 µM,6.07 µM,16.7 µM
Nc1nc(-c2ccccc2)nc(N)c1N=O,11.8 µM,54 µM,14.6 µM,41.9 µM,4 µM,14.1 µM,4.63 µM,23.1 µM,4.5 µM,36.3 µM,2.27 µM,7.27 µM,2.59 µM,8.45 µM,2880 nM,10.3 µM,6.44 µM,19.1 µM,5.21 µM,19.1 µM
CC(=O)O[C@]1(C(C)=O)CC[C@H]2[C@@H]3C=C(C)C4=CC(=O)CC[C@]4(C)[C@H]3CC[C@@]21C,> 100 µM,> 100 µM,> 100 µM,> 100 µM,> 74.1 µM,> 100 µM,> 64.7 µM,> 100 µM,> 100 µM,> 100 µM,53.2 µM,> 100 µM,> 100 µM,> 100 µM,> 100000 nM,> 100 µM,37.4 µM,> 100 µM,> 59.8 µM,> 100 µM
